Reference: patent publication US11542481B2, “Morphinan N-demethylase isolated from the methylobacterium thebainfresser and methods of use thereof” (priority 2017, dated 2023)
Where two headings read alike, the source gives them in different places.

Test system: MND enzyme
Format: biochemical, Methylobacterium Thebainfresser
Details: for substrate acceptance / detectable N-demethylase activity (in words): overnight assays, purified MND enzyme from PLUSE cells
Description: Samples were injected by the UFLCXR (Shimadzu) autosampler/pump system using a 0.5 ml/min flow rate prior to separation using a Gemini C-18 column (150×2.00 mm, 5μ, 110 Å; Phenomenex) and introduction into the QTRAP 6500. The program consisted of a binary gradient with solvent A (5% acetonitrile/5% MeOH/10 mM ammonium acetate/15 mM NH4OH) and solvent B (90% acetonitrile/10 mM ammonium acetate/15 mM NH4OH) and the following gradient: 0-2.0 min 0% B, 2.0-9.0 min 0-44% B, 9.0-11.0 min 44-100% solvent B, 11-13 min 100% B and 100-0% solvent B from 13-14 min and held at 0% B for an additional 8 min. EPI scans for each substrate and predicted product mass were included for each enzyme assay and source parameters were identical to those used for the QTRAP 4000 above except CE and DP which were based upon the optimum for each individual compound. Masses used can be found in table 3. Data were analyzed using Analyst 1.6.2.
Substrates were prepared in a 1 mM stock concentration then diluted to 100 μM working concentration for use in enzyme assays with the MND enzyme. […] No more than 15% ethanol was added to the 1 mM concentrations. […] All enzyme assays contained 30 mM potassium phosphate buffer pH 8.0, 7.5 μM substrate and 100 μl of purified MND enzyme (˜36 μg) in a total volume of 200 μl. Duplicate assays of each substrate using purified pET28a empty vector were performed as negative control and an assay containing thebaine and MND enzyme was used as a positive control. Assays were incubated at 30° C. overnight prior to ethyl acetate extraction. All samples were diluted 10 fold with 50% MeOH and analyzed on the QTRAP 6500 using method 2 and a 20 μl injection volume. The percentage of substrate demethylation was calculated based upon reduction of substrate in the enzyme assay as compared to the negative control.
Purified MND enzyme from PLUSE cells was used to test various substrates containing a methylated nitrogen (FIG. 16) in overnight assays.

[1] = overnight enzyme assay at 30° C., 7.5 μM substrate, ~36 μg purified MND enzyme, pH 8.0, reduction of substrate vs empty vector control, percentages approximate

## COC1=C[C@]23CCN(C)[C@H](Cc4ccc(OC)c(O)c42)C3=CC1=O [Salutaridine]
[1]
  Percent demethylated: 100%

## CN1CC[C@]23c4c5ccc(O)c4O[C@H]2C(=O)C=C[C@H]3[C@H]1C5 [Morphinone]
[1]
  Percent demethylated: 100%

## COC1=CC=C2[C@H]3Cc4ccc(O)c5c4[C@@]2(CCN3C)[C@H]1O5 [Oripavine]
[1]
  Percent demethylated: 100%

## COc1ccc2c3c1O[C@H]1C(=O)C=C[C@H]4[C@@H](C2)N(C)CC[C@]314 [Codeinone]
[1]
  Percent demethylated: 100%

## COc1ccc(CC2c3cc(OC)c(OC)cc3CCN2C)cc1OC (centres unmarked) [Laudanosine]
[1]
  Percent demethylated: 31%

## COc1cc2c(cc1O)[C@H](CCc1cc(O)c(OC)c(OC)c1)N(C)CC2 [Autumnaline]
[1]
  Percent demethylated: 11%

## CN1[C@@H]2CC[C@H]1C[C@@H](OC(=O)[C@H](CO)c1ccccc1)C2 [Hyoscyamine]
  substrate acceptance / detectable N-demethylase activity (in words): accepted
[1]
  Percent demethylated: 18%

## CC(=O)Oc1ccc2c3c1O[C@H]1[C@@H](OC(C)=O)C=C[C@H]4[C@@H](C2)N(C)CC[C@@]341 [Heroin]
[1]
  Percent demethylated: 70%

## COc1ccc(C[C@H]2c3cc(O)c(OC)cc3CCN2C)cc1O [(S)-Reticuline]
[1]
  Percent demethylated: 55%

## Isoorientaline
[1]
  Percent demethylated: 86%

## COc1ccc(CC2c3cc(OC)c(O)cc3CCN2C)cc1O (centres unmarked) [Protosinomenine]
[1]
  Percent demethylated: 60%

## COC1=C[C@]23CCN(C)[C@H](Cc4ccc(OC)c(O)c42)C3=C[C@@H]1O [Salutaridinol]
[1]
  Percent demethylated: 100%

## CN1CC[C@]23c4c5ccc(O)c4O[C@H]2[C@@H](O)C=C[C@H]3[C@H]1C5 [Morphine]
pH 8
  Percent demethylated: 100%

## COc1ccc2c3c1O[C@H]1[C@@H](O)C=C[C@H]4[C@@H](C2)N(C)CC[C@@]341 [Codeine]
[1]
  Percent demethylated: 100%

## COc1cc(C[C@@H]2c3cc(O)c(OC)cc3CCN2C)ccc1O [Orientaline]
[1]
  Percent demethylated: 100%

## CN1[C@@H]2C[C@@H](OC(=O)[C@H](CO)c3ccccc3)C[C@H]1[C@@H]1O[C@@H]12 [Scopolamine]
  substrate acceptance / detectable N-demethylase activity (in words): accepted
[1]
  Percent demethylated: 65%

## COc1ccc(C[C@H]2c3cc(OC)c(OC)cc3CCN2C)cc1O [Laudanine (Laudanidine)]
[1]
  Percent demethylated: 14%

## CN1CC[C@]23c4c5ccc(O)c4O[C@H]2C(=O)CC[C@@]3(O)[C@H]1C5 [Oxymorphone]
[1]
  Percent demethylated: 73%

## CN1[C@@H]2CC[C@H]1CC(=O)C2 [Tropinone]
  substrate acceptance / detectable N-demethylase activity (in words): accepted
[1]
  Percent demethylated: 40%

## CN(C)Cc1c[nH]c2ccccc12 [Gramine]
  substrate acceptance / detectable N-demethylase activity (in words): accepted
[1]
  Percent demethylated: 51%

## COc1ccc(C[C@@H]2c3cc(O)c(OC)cc3CCN2C)cc1O [(R)-Reticuline]
[1]
  Percent demethylated: 25%

## COc1ccc2c(c1OC)C(=O)O[C@@H]2[C@H]1c2c(cc3c(c2OC)OCO3)CCN1C [Noscapine (Narcotine)]
[1]
  Percent demethylated: 20%

## CN1[C@@H](CC(=O)c2ccccc2)CCC[C@H]1C[C@H](O)c1ccccc1 [(−)-Lobeline]
  substrate acceptance / detectable N-demethylase activity (in words): accepted
[1]
  Percent demethylated: 20%

## COc1ccc2c3c1O[C@H]1C[C@@H](O)C=C[C@@]31CCN(C)C2 [Galanthamine]
  substrate acceptance / detectable N-demethylase activity (in words): accepted
[1]
  Percent demethylated: 27%

## COc1cc2c3c(c1O)-c1c(cccc1OC)C[C@@H]3N(C)CC2 [Isothebaine]
  substrate acceptance / detectable N-demethylase activity (in words): accepted
[1]
  Percent demethylated: 35%
